The values that follow come from BindingDB's records for doi:10.1016/j.bioorg.2016.10.002 (Hazara University, 2016).

One experiment has as its target Acetylcholinesterase (Electrophorus electricus, UniProt O42275). As to the kind of experiment: In vitro AChE and BChE Assay. The conditions noted are these: pH 8. As to the method:
(§1) The synthesized compounds (each separately) were dissolved in a mixture of DMSO (1 ml) and methanol (9 ml) and then diluted in KH2PO4/K2HPO4 buffer (0.1 M, pH 8.0) to obtain desired concentration. […] The mixture was pre-incubated at 30 °C for 10 min and followed by adding 1 mM ATCI or BTCI and incubated again for 15 min. […] Instead of inhibitor, DMSO was used asnegative control to subtract its effect on activity. All reactions were carried out in triplicate.

The target in experiment [1] is Carboxylic ester hydrolase (Equus caballus, UniProt Q9N1N9). The experiment in a line: In vitro AChE and BChE Assay. The conditions noted are these: pH 8. As to the method:
as §1

Carboxylic ester hydrolase, sequence (Q9N1N9 whole entry): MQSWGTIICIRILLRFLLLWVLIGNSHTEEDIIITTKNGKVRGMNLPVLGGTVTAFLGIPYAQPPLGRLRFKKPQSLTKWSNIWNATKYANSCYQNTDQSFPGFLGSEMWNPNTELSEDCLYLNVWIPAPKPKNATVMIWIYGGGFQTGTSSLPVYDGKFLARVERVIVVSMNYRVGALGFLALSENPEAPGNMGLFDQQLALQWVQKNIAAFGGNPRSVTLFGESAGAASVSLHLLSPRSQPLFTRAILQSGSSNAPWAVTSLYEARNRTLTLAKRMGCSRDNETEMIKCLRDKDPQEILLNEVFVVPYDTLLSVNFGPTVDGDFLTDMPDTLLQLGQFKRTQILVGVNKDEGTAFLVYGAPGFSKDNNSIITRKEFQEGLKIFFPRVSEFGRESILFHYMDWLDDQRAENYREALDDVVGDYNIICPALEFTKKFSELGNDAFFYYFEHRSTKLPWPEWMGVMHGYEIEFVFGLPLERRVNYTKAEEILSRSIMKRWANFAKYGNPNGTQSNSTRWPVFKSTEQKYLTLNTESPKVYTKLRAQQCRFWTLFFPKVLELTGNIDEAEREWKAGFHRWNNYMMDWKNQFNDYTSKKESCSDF
Acetylcholinesterase, sequence (O42275 whole entry): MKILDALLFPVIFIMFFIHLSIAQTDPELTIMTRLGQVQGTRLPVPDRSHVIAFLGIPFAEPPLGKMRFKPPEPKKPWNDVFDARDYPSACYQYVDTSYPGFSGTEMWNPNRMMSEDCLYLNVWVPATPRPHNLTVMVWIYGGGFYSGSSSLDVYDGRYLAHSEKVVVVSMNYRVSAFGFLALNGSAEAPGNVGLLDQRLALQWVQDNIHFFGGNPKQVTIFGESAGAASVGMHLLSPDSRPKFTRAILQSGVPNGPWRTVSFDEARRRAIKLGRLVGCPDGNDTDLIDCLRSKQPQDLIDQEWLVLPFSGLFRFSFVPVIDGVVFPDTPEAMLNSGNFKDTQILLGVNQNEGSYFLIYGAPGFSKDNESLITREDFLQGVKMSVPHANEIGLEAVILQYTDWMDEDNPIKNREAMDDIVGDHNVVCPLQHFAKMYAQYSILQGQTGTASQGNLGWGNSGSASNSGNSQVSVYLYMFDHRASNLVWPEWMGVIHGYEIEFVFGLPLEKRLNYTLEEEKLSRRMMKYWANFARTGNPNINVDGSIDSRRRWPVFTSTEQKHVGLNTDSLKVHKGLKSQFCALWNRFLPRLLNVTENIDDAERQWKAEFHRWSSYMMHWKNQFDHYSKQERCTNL

As a reminder, the IC50 is the point on the concentration scale where inhibition reaches its midpoint. Higher therefore signals lower potency. `CC(=O)C1=C(C)NC(N)=NC1c1ccc(OCc2ccccc2)cc1` (stereo not drawn) [1-(2-Amino-4-(4-(benzyloxy)phenyl)-6-methyl-1,4-dihydropyrimidin-5-yl)ethanone (2c)] came in with a half-inhibitory concentration (IC50) at Acetylcholinesterase of 39.5 µM.

`CC(=O)C1=C(C)NC(N)=NC1c1ccc(Br)cc1` (stereo not drawn) [1-(2-Amino-4-(4-bromophenyl)-6-methyl-1,4-dihydropyrimidin-5-yl)ethanone (2b)] came in with an IC50 on Acetylcholinesterase of 58 µM.

Turning to `CC(=O)C1=C(C)NC(N)=NC1c1ccc(Cl)cc1` (stereo not drawn) [1-(2-Amino-4-(4-chlorophenyl)-6-methyl-1,4-dihydropyrimidin-5-yl)ethanone (2e)], the IC50 at Acetylcholinesterase was 68.3 µM.

`CC(=O)C1=C(C)NC(N)=NC1c1ccccc1` (stereo not drawn) [1-(2-Amino-6-methyl-4-phenyl-1,4-dihydropyrimidin-5-yl)ethanone (2a)] came in with an IC50 on Acetylcholinesterase of 41.3 µM.

In the case of `CC(=O)C1=C(C)NC(=S)NC1c1ccc(OCc2ccccc2)cc1` (stereo not drawn) [1-(4-(4-(Benzyloxy)phenyl)-6-methyl-2-thioxo-3,4-tetrahydropyrimidin-5-yl)ethanone (1c)], on Acetylcholinesterase, the IC50 was found to be 28.1 µM.

Take `CC(=O)C1=C(C)NC(=S)NC1c1ccc(Br)cc1` (stereo not drawn) [1-(4-(4-Bromophenyl)-6-methyl-2-thioxo-3,4-tetrahydropyrimidin-5-yl)ethanone (1b)]: on Acetylcholinesterase, the half-inhibitory concentration (IC50) is 53.2 µM.

Take `CC(=O)C1=C(C)NC(=S)NC1c1ccc(Cl)cc1` (stereo not drawn) [1-(4-(4-Chlorophenyl)-6-methyl-2-thioxo-3,4-tetrahydropyrimidin-5-yl)ethanone (1e)]: it took 59.9 µM to reach half-maximal inhibition at Acetylcholinesterase (IC50).

Compound `CC(=O)C1=C(C)NC(=S)NC1c1ccc(C)cc1` (stereo not drawn) [1-(6-Methyl-2-thioxo-4-p-tolyl-3,4-tetrahydropyrimidin-5-yl)ethanone (1d)] registered an IC50 on Acetylcholinesterase of 55.9 µM.

In the case of `CC(=O)C1=C(C)NC(NCC(=O)Nc2ccc(C)cc2)=NC1c1ccc(Br)cc1` (stereo not drawn) [2-(5-Acetyl-4-(4-bromophenyl)-6-methyl-1,4-dihydropyrimidin-2-ylamino)-N-p-tolylacetamide (5e)], the half-inhibitory concentration (IC50) came to 3.13 µM at Acetylcholinesterase and 20.9 µM in experiment [1].

Consider `CC(=O)C1=C(C)NC(NCC(=O)Nc2ccccc2)=NC1c1ccc(Br)cc1` (stereo not drawn) [2-(5-Acetyl-4-(4-bromophenyl)-6-methyl-1,4-dihydropyrimidin-2-ylamino)-N-phenylacetamide (5c)], for which the IC50 on Acetylcholinesterase was found to be 12.9 µM; in experiment [1], 38.5 µM.

Turning to `CC(=O)C1=C(C)NC(SCC(=O)Nc2ccc(C)cc2)=NC1c1ccc(Br)cc1` (stereo not drawn) [2-(5-Acetyl-4-(4-bromophenyl)-6-methyl-1,4-dihydropyrimidin-2-ylthio)-N-p-tolylacetamide (4e)], the half-inhibitory concentration (IC50) stood at 1.39 µM against Acetylcholinesterase and 52.8 µM in experiment [1].

Turning to `CC(=O)C1=C(C)NC(SCC(=O)Nc2ccccc2)=NC1c1ccc(Br)cc1` (stereo not drawn) [2-(5-Acetyl-4-(4-bromophenyl)-6-methyl-1,4-dihydropyrimidin-2-ylthio)-N-phenylacetamide (4c)], the IC50 against Acetylcholinesterase is 8.23 µM; in experiment [1], 24.5 µM.

On to `CC(=O)C1=C(C)NC(NCC(=O)Nc2ccc(C)cc2)=NC1c1ccc(Cl)cc1` (stereo not drawn) [2-(5-Acetyl-4-(4-chlorophenyl)-6-methyl-1,4-dihydropyrimidin-2-ylamino)-N-p-tolylacetamide (5f)], for which the results for the IC50 (at Acetylcholinesterase; in experiment [1]) were 3.08 µM and 26.4 µM, respectively.

As for `CC(=O)C1=C(C)NC(SCC(=O)Nc2ccc(C)cc2)=NC1c1ccc(Cl)cc1` (stereo not drawn) [2-(5-Acetyl-4-(4-chlorophenyl)-6-methyl-1,4-dihydropyrimidin-2-ylthio)-N-p-tolylacetamide (4f)], the concentration for half-maximal inhibition (IC50) against Acetylcholinesterase stood at 1.11 µM; in experiment [1] it was 50 µM.

For the compound `CC(=O)C1=C(C)NC(NCC(=O)Nc2ccc(C)cc2)=NC1c1ccc(C)cc1` (stereo not drawn) [2-(5-Acetyl-6-methyl-4-p-tolyl-1,4-dihydropyrimidin-2-ylamino)-N-p-tolylacetamide (5h)], the concentration for half-maximal inhibition (IC50) against Acetylcholinesterase came to 7.87 µM; in experiment [1], 29.4 µM.

Consider `CC(=O)C1=C(C)NC(SCC(=O)Nc2ccc(C)cc2)=NC1c1ccc(C)cc1` (stereo not drawn) [2-(5-Acetyl-6-methyl-4-p-tolyl-1,4-dihydropyrimidin-2-ylthio)-N-p-tolylacetamide (4h)], for which the IC50 against Acetylcholinesterase was 7.63 µM; in experiment [1], 56.3 µM.

Take `CC(=O)C1=C(C)NC(NCC(=O)Nc2ccc(Cl)cc2)=NC1c1ccccc1` (stereo not drawn) [2-(5-Acetyl-6-methyl-4-phenyl-1,4-dihydropyrimidin-2-ylamino)-N-(4-chlorophenyl)acetamide (5b)]: the figures for the 50% inhibitory concentration (IC50) (against Acetylcholinesterase; in experiment [1]) were 2.01 µM and 27.2 µM, respectively.

With `CC(=O)C1=C(C)NC(NCC(=O)Nc2ccccc2)=NC1c1ccccc1` (stereo not drawn) [2-(5-Acetyl-6-methyl-4-phenyl-1,4-dihydropyrimidin-2-ylamino)-N-phenylacetamide (5a)], the IC50 at Acetylcholinesterase came to 5.33 µM; in experiment [1] it was 15 µM.

As to `CC(=O)C1=C(C)NC(SCC(=O)Nc2ccccc2)=NC1c1ccccc1` (stereo not drawn) [2-(5-Acetyl-6-methyl-4-phenyl-1,4-dihydropyrimidin-2-ylthio)-N-phenylacetamide (4a)], the half-inhibitory concentration (IC50) against Acetylcholinesterase was 0.17 µM; in experiment [1], 2.37 µM.

Take `CC(=O)C1=C(C)NC(SCC(=O)Nc2ccc(Cl)cc2)=NC1c1ccccc1` (stereo not drawn) [2-((5-Acetyl-6-methyl-4-phenyl-1,4-dihydropyrimidin-2-yl)thio)-N-(4-chlorophenyl)acetamide (4b)]: the 50% inhibitory concentration (IC50) on Acetylcholinesterase worked out at 1.97 µM; in experiment [1] it was 16.4 µM.

In turn, `CC(=O)C1=C(C)NC(=S)NC1c1ccccc1` (stereo not drawn) [5-Aceto-6-methyl-4-phenyl-3,4-dihydropyrimidin-2(1H)-thione (1a)] displayed an IC50 against Acetylcholinesterase of 87.6 µM. This counts as double-digit micromolar.
